Data set [1] has as its system Differentiated inducible PC12 cells. Nature of the data set: L-glutamine add-back to MSO treated PC12 culture. The data set is classed as cell-based. As for the experimental part:
The cells are grown overnight and aggregation is calculated. Inhibition of aggregation proceeds in a concentration-dependent manner.
In contrast, the addition of L-GLN has no effect on the growth of cells not treated with MSO or cultures treated with subinhibitory concentrations of MSO.

The test system of another data set is Huntington's disease. The settings on record: patients, cited from earlier work; for slowing of progression of Huntington's disease: large-scale clinical trial.
The subject of data set [2] is Differentiated inducible PC12 cells. The note with it: MSO 1-100 μM, low glutamine medium, overnight, fluorescent microscopy counts.
Description: Cells (1×10^6) are plated in 10-cm plates using tissue culture medium low in glutamine to ensure that most of the glutamine in the cells is the product of de novo synthesis by cellular glutamine synthetase. […] MSO is added directly to the cell-culture media at final concentrations of 1-100 μM. The cells are grown overnight and aggregation is calculated. […] Visual counts of aggregates are performed by using fluorescent microscopy.
For data set [3], the system named is Drosophila transgenic polyQ line P{UAS-Q48myc}^42. The note with it: Q48 flies fed MSO; Q48 flies without MSO need an average of 26 sec.
Description: Flies are mated at 25° C. as described in Nature 413, 739-743. Eggs are collected and transferred into vials at 29° C. containing standard food supplemented with MSO, and adults are transferred to vials containing fresh food every 3 days after eclosion.
A second phenotype associated with expanded polyQ expression is a decrease in motor function. This is assayed by using an “escape” or climbing assay as described in Exp. Gerontol.
For a further data set, the target named is glutamine synthetase (Homo sapiens, UniProt P15104). The note with it: cited from earlier work.
Data set [4] has as its system brain levels of glutamine. The note with it: MSO administered to normal animals; reduced from 5.6; cited from earlier work.
The test system of data set [5] is mice with the gene mutation for Huntington's disease (HD). The settings on record: cited from earlier work.
For data set [6] the following is noted: in vivo; cited from earlier work.

Sequence of glutamine synthetase (P15104 2-373 limits assumed, species assumed): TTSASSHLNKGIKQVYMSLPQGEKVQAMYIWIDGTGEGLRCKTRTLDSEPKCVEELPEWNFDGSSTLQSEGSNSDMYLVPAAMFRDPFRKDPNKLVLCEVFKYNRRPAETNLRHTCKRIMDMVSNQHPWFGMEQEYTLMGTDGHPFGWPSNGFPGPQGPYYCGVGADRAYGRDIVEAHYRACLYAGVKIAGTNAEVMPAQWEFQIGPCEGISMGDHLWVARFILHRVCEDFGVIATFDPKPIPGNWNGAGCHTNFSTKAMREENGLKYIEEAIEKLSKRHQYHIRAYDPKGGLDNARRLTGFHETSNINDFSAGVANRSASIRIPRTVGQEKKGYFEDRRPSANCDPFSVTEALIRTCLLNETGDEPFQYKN

On to `NC(=O)CC[C@H](N)C(=O)O` [L-glutamine], for which the “toxic protein synthesis and aggregation after addition of L-glutamine” value in data set [1] (MSO treated culture) is “increased toxic protein synthesis and aggregation”. For the same compound, the “growth of cells after addition of L-GLN” value in data set [1] (cells not treated with MSO or treated with subinhibitory concentrations of MSO) is reported as “no effect”.

As to `CC(Cc1ccccc1)(NC(=O)CN)c1ccccc1` (stereo not shown) [Remacemide], in the data set with Huntington's disease, the “slowing of progression of Huntington's disease” value is recorded as “neither drug resulted in any significant improvement”.

As for `COC1=C(OC)C(=O)C(C/C=C(\C)CC/C=C(\C)CC/C=C(\C)CC/C=C(\C)CC/C=C(\C)CC/C=C(\C)CC/C=C(\C)CC/C=C(\C)CC/C=C(\C)CCC=C(C)C)=C(C)C1=O` [Coenzyme Q10], the “slowing of progression of Huntington's disease” value in the data set with Huntington's disease is “neither drug resulted in any significant improvement”. For the same compound, the “disease progression after one year of treatment” value in the data set with Huntington's disease (one year of treatment, overall results inconclusive) is “seemed to progress more slowly”.

In the case of `CS(=N)(=O)CC[C@H](N)C(=O)O` (stereo partly drawn) [MSO, L-methionine S-sulfoximine], the “visible aggregate production (aggregation)” value in data set [2] is recorded as “inhibit aggregation”. In addition, the “time to climb a defined distance up a vial (motor function)” value in data set [3] was “require less time to climb the same distance”. In addition, on glutamine synthetase, the “type of inhibition of glutamine synthetase” value is on record as “irreversible inhibitor”. For the same compound, the “brain levels of glutamine” value in data set [4] was 1.8 mmol/kg brain.

Consider `NCCSSCCN` [cystamine], for which the tremors and survival result in data set [5] (HD mutation mice) is “alleviate tremors and prolong life”. Besides, in data set [5] (mouse, in vivo), the “levels of neuroprotective proteins” value is reported as “increase the levels of certain neuroprotective proteins”.

Turning to `CP(=O)(O)CCC(N)C(=O)O` [Glufosinate, ammonium-D-L-homoalanine-4-yl(methyl)-phosphinate], the “type of inhibition of glutamine synthetase” value on glutamine synthetase is “catalytic inhibitor”. Also, the “crossing of the blood brain barrier” value in data set [6] is on record as “does not cross the blood brain barrier”.
